Source: patent publication US4431636A, “Bis(4-O-polyhexaose-thio)-phenyl ureas and method of use” (American Cyanamid Company, priority 1982, dated 1984)
Like-named read-outs stand apart in the source and are kept apart here.

Experiments:
[1] = target: activated human C1 (Homo sapiens, UniProt P09871); assay: Test Code 026 (C1 inhibitor); format: biochemical; details: in vitro; serial twofold dilution assay, higher well number higher activity
Method: (§1) Percent inhibition is calculated by comparison with simultaneous controls.

[2] = tested on: late components of human complement (C3-C9); assay: Test Code 035 (C3-C9 inhibitor); format: biochemical; details: in vitro; lysis of EAC 142; serial twofold dilution assay, higher well number higher activity
Method: as §1

[3] = tested on: serum complement activity; assay: Guinea Pig Intraperitoneal Test (GPIP); format: in vivo; details: Cavia porcellus, ip, 200 mg/kg i.p.
Method: as §1

Chain of activated human C1 (P09871 16-688): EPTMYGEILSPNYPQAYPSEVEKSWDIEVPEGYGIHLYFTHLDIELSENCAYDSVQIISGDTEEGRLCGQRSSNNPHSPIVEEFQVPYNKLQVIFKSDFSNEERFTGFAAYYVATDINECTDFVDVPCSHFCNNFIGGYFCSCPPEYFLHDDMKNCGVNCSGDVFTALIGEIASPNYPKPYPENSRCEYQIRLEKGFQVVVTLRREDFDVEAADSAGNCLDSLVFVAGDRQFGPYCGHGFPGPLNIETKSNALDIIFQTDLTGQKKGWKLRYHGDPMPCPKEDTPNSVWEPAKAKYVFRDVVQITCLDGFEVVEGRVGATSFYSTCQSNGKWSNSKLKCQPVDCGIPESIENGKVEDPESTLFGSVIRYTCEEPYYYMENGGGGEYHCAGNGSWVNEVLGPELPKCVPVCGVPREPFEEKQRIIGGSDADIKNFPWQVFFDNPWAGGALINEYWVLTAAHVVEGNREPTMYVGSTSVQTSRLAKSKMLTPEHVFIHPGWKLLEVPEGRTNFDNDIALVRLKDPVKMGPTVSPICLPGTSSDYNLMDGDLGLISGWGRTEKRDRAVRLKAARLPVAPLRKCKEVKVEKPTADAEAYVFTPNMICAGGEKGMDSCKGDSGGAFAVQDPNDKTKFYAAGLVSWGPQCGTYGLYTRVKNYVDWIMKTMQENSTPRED
Chain of activated human C1 (P00736 18-705 partner): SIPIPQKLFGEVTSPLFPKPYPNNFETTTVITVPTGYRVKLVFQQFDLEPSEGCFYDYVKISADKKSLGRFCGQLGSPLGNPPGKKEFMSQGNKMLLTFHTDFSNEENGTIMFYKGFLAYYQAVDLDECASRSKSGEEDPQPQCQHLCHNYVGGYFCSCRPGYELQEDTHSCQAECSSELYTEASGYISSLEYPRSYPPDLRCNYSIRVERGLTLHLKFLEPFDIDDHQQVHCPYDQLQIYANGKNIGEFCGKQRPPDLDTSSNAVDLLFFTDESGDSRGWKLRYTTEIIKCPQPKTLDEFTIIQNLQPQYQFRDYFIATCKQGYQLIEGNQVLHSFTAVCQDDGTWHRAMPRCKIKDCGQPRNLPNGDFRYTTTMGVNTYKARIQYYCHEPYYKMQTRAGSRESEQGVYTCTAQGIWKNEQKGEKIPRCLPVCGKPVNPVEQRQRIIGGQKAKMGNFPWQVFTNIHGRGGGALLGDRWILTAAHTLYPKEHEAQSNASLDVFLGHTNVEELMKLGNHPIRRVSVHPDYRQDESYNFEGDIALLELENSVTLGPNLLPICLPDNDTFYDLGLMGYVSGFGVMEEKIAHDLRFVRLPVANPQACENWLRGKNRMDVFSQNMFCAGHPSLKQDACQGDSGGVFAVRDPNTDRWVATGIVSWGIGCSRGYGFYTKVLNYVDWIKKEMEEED
Chain of activated human C1 (P02745 23-245 partner): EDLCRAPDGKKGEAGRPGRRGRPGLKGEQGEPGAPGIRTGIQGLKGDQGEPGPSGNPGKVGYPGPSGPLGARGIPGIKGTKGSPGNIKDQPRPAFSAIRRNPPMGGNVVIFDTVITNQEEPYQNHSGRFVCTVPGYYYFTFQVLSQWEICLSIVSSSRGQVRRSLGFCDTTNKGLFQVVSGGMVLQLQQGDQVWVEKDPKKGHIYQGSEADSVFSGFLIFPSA
Chain of activated human C1 (P02746 28-253 partner): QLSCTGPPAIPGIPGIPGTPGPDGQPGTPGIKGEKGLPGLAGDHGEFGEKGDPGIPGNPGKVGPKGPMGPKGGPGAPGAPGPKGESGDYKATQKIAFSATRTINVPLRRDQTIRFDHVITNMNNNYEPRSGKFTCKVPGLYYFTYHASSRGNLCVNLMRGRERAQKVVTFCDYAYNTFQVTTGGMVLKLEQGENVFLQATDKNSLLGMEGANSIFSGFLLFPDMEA
Chain of activated human C1 (P02747 29-245 partner): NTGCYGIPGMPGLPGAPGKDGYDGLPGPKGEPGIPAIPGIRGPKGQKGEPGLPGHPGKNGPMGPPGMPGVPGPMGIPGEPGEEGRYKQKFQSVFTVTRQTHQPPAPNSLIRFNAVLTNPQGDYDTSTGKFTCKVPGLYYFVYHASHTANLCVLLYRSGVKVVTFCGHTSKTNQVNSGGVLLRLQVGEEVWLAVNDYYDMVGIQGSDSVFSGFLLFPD

O=C(Nc1ccc(S[C@@H]2O[C@H](COS(=O)(=O)O)[C@@H](O[C@H]3O[C@H](COS(=O)(=O)O)[C@@H](OS(=O)(=O)O)[C@H](OS(=O)(=O)O)[C@H]3OS(=O)(=O)O)[C@H](OS(=O)(=O)O)[C@H]2OS(=O)(=O)O)cc1)Nc1ccc(S[C@@H]2O[C@H](COS(=O)(=O)O)[C@@H](O[C@H]3O[C@H](COS(=O)(=O)O)[C@@H](OS(=O)(=O)O)[C@H](OS(=O)(=O)O)[C@H]3OS(=O)(=O)O)[C@H](OS(=O)(=O)O)[C@H]2OS(=O)(=O)O)cc1.[Na].[Na].[Na].[Na].[Na].[Na].[Na].[Na].[Na].[Na].[Na].[Na].[Na].[Na] [Tetradecasodium N,N'-bis[4-[[2,3,6-tri-O-sulfo-4-O-(2,3,4,6-tetra-O-sulfo-α-D-glucopyranosyl)-β-D-glucopyranosyl]thio]phenyl]urea]
C-1 026 Wells [1]: 11 Wells | C-Late 035 Wells [2]: 2 Wells | inhibition at 200 mg/kg ([3]; serum taken 2 hours after injection, read-out: In vivo Activity (Guinea Pig % Inhibition) (Intraperitoneal) Time 2 Hours): 90% | inhibition at 200 mg/kg ([3]; serum taken 6 hours after injection, read-out: In vivo Activity (Guinea Pig % Inhibition) (Intraperitoneal) Time 6 Hours): 91% | inhibition at 200 mg/kg ([3]; serum taken 24 hours after injection, read-out: In vivo Activity (Guinea Pig % Inhibition) (Intraperitoneal) Time 24 Hours): 58%
